Measurements published in ChEMBL document CHEMBL1155256, “A new small molecule that directly inhibits the DNA binding of NF-kappaB” (Bioorg Med Chem, 2009).

target: T1, Nuclear factor NF-kappa-B p105 subunit (Homo sapiens, UniProt P19838); experiment: Inhibition of GST-fused human NF-kappaB p50 subunit DNA binding activity assessed as shortened diffusion time by fluorescence correlation spectroscopy
T1 sequence (P19838 whole entry): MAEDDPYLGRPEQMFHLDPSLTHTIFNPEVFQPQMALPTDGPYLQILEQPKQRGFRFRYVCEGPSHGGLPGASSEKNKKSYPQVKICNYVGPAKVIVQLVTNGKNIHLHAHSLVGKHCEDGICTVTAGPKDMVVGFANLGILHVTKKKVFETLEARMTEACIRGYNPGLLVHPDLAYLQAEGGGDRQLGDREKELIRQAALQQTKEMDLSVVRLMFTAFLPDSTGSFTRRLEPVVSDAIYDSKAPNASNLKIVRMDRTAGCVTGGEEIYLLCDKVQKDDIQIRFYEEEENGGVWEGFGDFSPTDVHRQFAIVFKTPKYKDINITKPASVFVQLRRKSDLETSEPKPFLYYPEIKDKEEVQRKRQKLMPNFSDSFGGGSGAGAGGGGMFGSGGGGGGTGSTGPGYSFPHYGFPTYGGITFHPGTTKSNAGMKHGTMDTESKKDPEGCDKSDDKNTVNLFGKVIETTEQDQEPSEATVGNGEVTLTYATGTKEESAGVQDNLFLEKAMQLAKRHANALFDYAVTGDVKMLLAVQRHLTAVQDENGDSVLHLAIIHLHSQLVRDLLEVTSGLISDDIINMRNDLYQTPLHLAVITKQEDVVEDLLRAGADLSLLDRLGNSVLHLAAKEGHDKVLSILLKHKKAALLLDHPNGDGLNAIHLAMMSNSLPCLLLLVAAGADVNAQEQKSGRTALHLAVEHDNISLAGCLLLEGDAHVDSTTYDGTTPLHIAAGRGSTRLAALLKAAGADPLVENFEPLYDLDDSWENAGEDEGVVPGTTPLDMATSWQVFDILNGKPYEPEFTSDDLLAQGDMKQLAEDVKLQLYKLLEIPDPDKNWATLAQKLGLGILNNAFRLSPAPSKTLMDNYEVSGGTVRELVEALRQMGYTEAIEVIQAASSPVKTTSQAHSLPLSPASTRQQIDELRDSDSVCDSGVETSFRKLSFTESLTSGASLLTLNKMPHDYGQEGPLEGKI

IC50 | SMILES
> 300 µM | O=[N+]([O-])c1ccc(Nc2nc(Cl)nc(Cl)n2)cc1
119 µM | O=[N+]([O-])c1cccc(Nc2nc(Cl)nc(Cl)n2)c1
28.6 µM | Clc1nc(Cl)nc(Nc2ccccc2)n1
74.4 µM | CC(C)c1ccc(Nc2nc(Cl)nc(Cl)n2)cc1
19 µM | Cc1cccc(Nc2nc(Cl)nc(Cl)n2)c1

SMILES | IC50
Clc1ccc(Nc2nc(Cl)nc(Cl)n2)cc1 | 110 µM
